# Entries after “also recorded” stand apart in the source; their conditions may differ.
# Assays:
# ApoB = test: ELISA of secreted ApoB in HepG2 cells; format: cell-based, human
# Method in brief: (§1)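 HepG2 cells treated with freshly purified compound powders; culture medium assayed by ELISA for secreted ApoB and PCSK9, and cell protein assayed by ELISA for LDLR.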
# LDLR [1] = test: ELISA of LDLR protein in HepG2 cells; format: cell-based, human
# Method in brief: as §1
# PCSK9 [2] = test: ELISA of secreted PCSK9 protein in HepG2 cells; format: cell-based, human
# Method in brief: as §1
# HepG2 cells [3] = test: Cell Titer Glo (CTG) cell viability assay; format: cell-based, human; design: key: A: Increase <2-fold; B: Increase >2-fold; X: Decrease <2-fold; Y: Decrease >2-fold; No significant change; settings: cell viability (ATP)
# Method in brief: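 HepG2 viability was measured after TRIB1 inducer treatment by CellTiter-Glo, a luminescent readout of ATP content proportional to metabolically active cells.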
# TRIB1 = test: qPCR TRIB1 expression in HepG2 cells; format: cell-based, human
# SCAP = test: qPCR SCAP transcript level in HepG2 cells; format: cell-based, human
# Method in brief: (§2)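 HepG2 cells were treated 20 h with TRIB1 inducer compounds, with a 10 microM duplicate primary screen. Transcripts were quantified by qPCR after RNA isolation and reverse transcription, normalized to GAPDH and expressed relative to DMSO control. Atorvastatin treatment was profiled alongside.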
# SREBF1 = test: qPCR SREBF1 transcript level in HepG2 cells; format: cell-based, human
# Method in brief: as §2
# SREBF2 = test: qPCR SREBF2 transcript level in HepG2 cells; format: cell-based, human
# Method in brief: as §2
# PCSK9 [4] = test: qPCR PCSK9 expression in HepG2 cells; format: cell-based, human
# LDLR [5] = test: qPCR LDLR expression in HepG2 cells; format: cell-based, human
# HMGCR = test: qPCR HMGCR transcript level in HepG2 cells; format: cell-based, human
# Method in brief: as §2
# HMGCS = test: qPCR HMGCS transcript level in HepG2 cells; format: cell-based; settings: Homo sapiens, 20 h
# Method in brief: as §2
# FASN = test: qPCR FASN transcript level in HepG2 cells; format: cell-based; settings: Homo sapiens, 20 h
# Method in brief: as §2
# SCD1 = test: qPCR SCD1 transcript level in HepG2 cells; format: cell-based; settings: Homo sapiens, 20 h
# Method in brief: as §2
# APOC3 = test: Transcriptional profiling of APOC3 gene in HepG2 cells; format: cell-based, human; settings: 10 μM, 24 hours
# Description: Expression of APOC3 is associated with increased levels of triglycerides in plasma and carriers of APOC3 gene null mutation have low levels of triglycerides and are protected from cardiovascular disease (Pollin et al., Science, 322:1702, 2008).
# MTTP = test: qPCR MTTP expression in HepG2 cells; format: cell-based, human; settings: 28 hour time course
# Experimental: Further analysis of the expression levels of various proteins in the cholesterol and triglyceride biosynthetic pathways in response to TRIB1 inducer treatment was performed. In particular, transcript levels of additional lipoprotein metabolism pathway proteins SCAP, SREBF1, SREBF2, HMGCR, HMGCS, SCD1, FASN and MTTP were assessed by qPCR, along with TRIB1, LDLR, and PCSK9. The gene expression profile for the same subset of genes was also assessed after treatment with the statin atorvastatin (Lipitor), commonly used in therapy for hypercholesterolemia and other cardiovascular diseases.
# The kinetics of the modulation of TRIB1, LDLR, PCSK9 and MTTP gene expression after treatment by select TRIB1 inducer compounds was monitored by qPCR analysis (FIG. 4). RNA was extracted from cells at various timepoints over 28 hours of treatment (0, 2, 4, 6, 8, 24, 28 hours). Specifically, compounds 12a and 14a induced transcriptional responses over time similar to those produced by berberine, a plant alkaloid used in Chinese medicine. […] Both compound 12a and compound 14a induce TRIB1 and LDLR and repress PCSK9 and MTTP expression with similar kinetics and similar fold change as berberine Importantly, both compounds induce these gene expression changes at much lower concentrations than berberine. […]
# HepG2 cells [6] = test: BODIPY-FL LDL uptake in HepG2 cells (high content microscopy); format: cell-based, human; settings: treated 20 hours; BODIPY-FL LDL uptake monitored 5 hours
# Experimental: TRIB1 inducers increase the rate of LDL uptake. HepG2 cells grown under standard culture conditions (10% FBS) were treated for 20 hours with compounds 2a, 14a and 12a at indicated concentrations and the uptake of BODIPY-FL conjugated LDL particles was monitored for 5 hours using high content microscopy. To control for regulation of LDL uptake by cholesterol, cells were grown in media depleted for (0.5% LPDS—lipoprotein deficient serum) or supplemented with cholesterol (0.5% LPDS plus cholesterol ([…] cholesterol and […] 25-OH cholesterol)).
# LDLR [7] = test: qPCR LDLR expression in HepG2 cells; format: cell-based, human; settings: overnight simvastatin, then compound
# [8] = at the maximal dose tested, HepG2
# [9] = Homo sapiens, 20 h, HepG2 cells
compound,measurement,setting,value
CN(C)c1ccc2c(c1)[C@@H]1C[C@@H](CC(=O)NCc3ccc(Oc4ccccc4)cc3)O[C@@H](CO)[C@@H]1O2 [Compound 12a],secretion of apoB into the media / ApoB levels (in words),ApoB; HepG2,inhibited secretion of apoB
same,ELISA ApoB,ApoB; HepG2 cells,Y (Decrease >2-fold)
same,increase of the LDL receptor protein in the cell,LDLR [1]; HepG2,3 fold
same,ELISA LDLR,LDLR [1]; HepG2 cells,B (Increase >2-fold)
same,ELISA PCSK9,PCSK9 [2]; HepG2 cells,Y (Decrease >2-fold)
same,inhibition of secretion of PCSK9 protein into the media,PCSK9 [2]; [8],70%
same,CTG,HepG2 cells [3],N
same,TRIB1 expression (in words),"TRIB1; HepG2, qPCR",induce; also recorded: robustly induced
same,fold induction at 10 µM,TRIB1; [9],< 2
same,potency relative to berberine,"TRIB1; TRIB1, LDLR, PCSK9 and MTTP gene expression changes, HepG2",5 fold
same,qPCR SCAP,SCAP,X (Decrease <2-fold)
same,qPCR SREBF1,SREBF1,Y (Decrease >2-fold)
same,qPCR SREBF2,SREBF2,Y (Decrease >2-fold)
same,PCSK9 expression (in words),"PCSK9 [4]; HepG2, qPCR",repress; also recorded: strongly reduced
same,fold induction at 10 µM,PCSK9 [4]; [9],> 2
same,inhibition of expression of PCSK9 mRNA,PCSK9 [4]; [8],70%
same,expression of PCSK9 stimulated by pretreatment with atorvastatin (in words),PCSK9 [4]; atorvastatin pretreatment,potently reduced
same,LDLR expression (in words),"LDLR [5]; HepG2, qPCR",induction of LDLR expression; also recorded: induce; also recorded: robustly induced
same,qPCR LDLR,LDLR [5]; HepG2 cells,A (Increase <2-fold)
same,qPCR HMGCR,HMGCR,Y (Decrease >2-fold)
same,fold induction at 10 µM,HMGCS,> 2
same,fold induction at 10 µM,FASN,> 2
same,fold induction at 10 µM,SCD1,> 2
same,expression of APOC3 gene (in words),APOC3,down regulates
same,MTTP expression (in words),MTTP,repress
same,rate of LDL uptake (in words),HepG2 cells [6],robust increase
same,induction of LDLR expression in combination with simvastatin (in words),LDLR [7],additive effect
